Columns and labels:
Format in all cases: in vivo
[1] = test system: barnyardgrass (Echinochloa crus-galli); experiment: Test A pre/postemergence
Procedure, shortened: (§1)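 Soil: loam blended with sand. Formulation: non-phytotoxic solvent mixture with surfactant. Timing: preemergence soil spray plus concurrent postemergence spray (plants 2–10 cm, 1–2 leaves). Readout: visual injury versus untreated controls at ~10 days, 0–100.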

[2] = test system: crabgrass (Digitaria sanguinalis); experiment: Test A pre/postemergence
Procedure, shortened: as §1

[3] = test system: giant foxtail (Setaria faberi); experiment: Test A pre/postemergence
Procedure, shortened: as §1

[4] = test system: morningglory (Ipomoea spp.); experiment: Test A pre/postemergence
Procedure, shortened: as §1

[5] = test system: redroot pigweed (Amaranthus retroflexus); experiment: Test A pre/postemergence
Procedure, shortened: as §1

[6] = test system: velvetleaf (Abutilon theophrasti); experiment: Test A pre/postemergence
Procedure, shortened: as §1

[7] = test system: barnyardgrass (Echinochloa crus-galli); experiment: Test E flooded paddy water application; conditions: Flood, 21 days, scale 0 to 100 (0 no effect, 100 complete control)
Description: (§2) Three plastic pots (ca. 16-cm diameter) per rate were partially filled with sterilized Tama silt loam soil comprising a 35:50:15 ratio of sand, silt and clay and 2.6% organic matter. Separate plantings for each of the three pots were as follows. Seeds from the U.S. of ducksalad (Heteranthera limosa), smallflower umbrella sedge (Cyperus difformis) and purple redstem (Ammannia coccinea), were planted into one 16-cm pot for each rate. Seeds from the U.S. of rice flatsedge (Cyperus iria), bearded (brdd.) sprangletop (Leptochloa fusca ssp. fascicularis), one stand of 9 or 10 water seeded rice seedlings (Oryza sativa cv. ‘Japonica-M202’), and one stand of 6 transplanted rice seedlings (Oryza sativa cv. ‘Japonica-M202’) were planted into one 16-cm pot for each rate. Seeds from the U.S. of barnyardgrass (Echinochloa crus-galli), late watergrass (Echinochloa oryzicola), early watergrass (Echinochloa oryzoides) and junglerice (Echinochloa colona) were planted into one 16-cm pot for each rate. Plantings were sequential so that crop and weed species were at the 2.0 to 2.5-leaf stage at time of treatment.
(§3) Potted plants were grown in a greenhouse with day/night temperature settings of 29.5/26.7° C., and supplemental balanced lighting was provided to maintain a 16-hour photoperiod. Test pots were maintained in the greenhouse until test completion.
(§4) At time of treatment, test pots were flooded to 3 cm above the soil surface, treated by application of test compounds directly to the paddy water, and then maintained at that water depth for the duration of the test. Effects of treatments on rice and weeds were visually evaluated by comparison to untreated controls after 21 days. Plant response ratings, summarized in Table E, are based on a scale of 0 to 100 where 0 is no effect and 100 is complete control. A dash (-) response means no test result.

[8] = test system: bearded (brdd.) sprangletop (Leptochloa fusca ssp. fascicularis); experiment: Test E flooded paddy water application; conditions: Flood, 21 days, scale 0 to 100 (0 no effect, 100 complete control)
Description: as §2, §3, §4

[9] = test system: ducksalad (Heteranthera limosa); experiment: Test E flooded paddy water application; conditions: Flood, 21 days, scale 0 to 100 (0 no effect, 100 complete control)
Description: as §2, §3, §4

[10] = test system: early watergrass (Echinochloa oryzoides); experiment: Test E flooded paddy water application; conditions: Flood, 21 days, scale 0 to 100 (0 no effect, 100 complete control)
Description: as §2, §3, §4

[11] = test system: junglerice (Echinochloa colona); experiment: Test E flooded paddy water application; conditions: Flood, 21 days, scale 0 to 100 (0 no effect, 100 complete control)
Description: as §2, §3, §4

[12] = test system: late watergrass (Echinochloa oryzicola); experiment: Test E flooded paddy water application; conditions: Flood, 21 days, scale 0 to 100 (0 no effect, 100 complete control)
Description: as §2, §3, §4

[13] = test system: purple redstem (Ammannia coccinea); experiment: Test E flooded paddy water application; conditions: Flood, 21 days, scale 0 to 100 (0 no effect, 100 complete control)
Description: as §2, §3, §4

[14] = test system: rice flatsedge (Cyperus iria); experiment: Test E flooded paddy water application; conditions: Flood, 21 days, scale 0 to 100 (0 no effect, 100 complete control)
Description: as §2, §3, §4

[15] = test system: smallflower umbrella sedge (Cyperus difformis); experiment: Test E flooded paddy water application; conditions: Flood, 21 days, scale 0 to 100 (0 no effect, 100 complete control)
Description: as §2, §3, §4

[16] = test system: transplanted rice seedlings (Oryza sativa cv. ‘Japonica-M202’); experiment: Test E flooded paddy water application; conditions: Flood, 21 days, scale 0 to 100 (0 no effect, 100 complete control)
Description: as §2, §3, §4

[17] = test system: water seeded rice seedlings (Oryza sativa cv. ‘Japonica-M202’); experiment: Test E flooded paddy water application; conditions: Flood, 21 days, scale 0 to 100 (0 no effect, 100 complete control)
Description: as §2, §3, §4

[18] = Postemergence, 125 g ai/ha, 0 to 100 scale (0 no effect, 100 complete control)
[19] = Postemergence, 500 g ai/ha, 0 to 100 scale (0 no effect, 100 complete control)
[20] = Preemergence, 125 g ai/ha, 0 to 100 scale where 0 is no effect and 100 is complete control, approximately ten days
[21] = Preemergence, 500 g ai/ha, 0 to 100 scale where 0 is no effect and 100 is complete control, approximately ten days

CCOC(=O)c1nc(-c2ccc(Cl)cc2F)nc(N)c1Br [Compound 69]
15: Plant response rating, Barnyardgrass [1, 21]
95: Plant response rating, Ducksalad ([9]; 16 g ai/ha)
90: Plant response rating, Morningglory [4, 19] | Plant response rating, Pigweed [5, 18] | Plant response rating, Pigweed [5, 19] | Plant response rating, Velvetleaf [6, 19] | Sedge, Umbrella plant response rating ([15]; 125 g ai/ha)
10: Plant response rating, Foxtail, Giant [3, 20]
20: Plant response rating, Crabgrass [2, 18]
70: Flatsedge, Rice plant response rating ([14]; 32 g ai/ha)
0: Plant response rating, Barnyardgrass [1, 18] | Plant response rating, Barnyardgrass [1, 20] | Plant response rating, Foxtail, Giant [3, 18] | Plant response rating, Morningglory [4, 20] | Plant response rating, Morningglory [4, 21] | Barnyardgrass plant response rating ([7]; 32 g ai/ha) | Barnyardgrass plant response rating ([7]; 64 g ai/ha) | Barnyardgrass plant response rating ([7]; 125 g ai/ha) | Plant response rating, Barnyardgrass ([7]; 16 g ai/ha) | Sprangletop, Brdd. plant response rating ([8]; 32 g ai/ha) | Sprangletop, Brdd. plant response rating ([8]; 64 g ai/ha) | Sprangletop, Brdd. plant response rating ([8]; 125 g ai/ha) | Sprangletop, Brdd. plant response rating ([8]; 250 g ai/ha) | Plant response rating, Sprangletop, Brdd. ([8]; 16 g ai/ha) | Watergrass, Early plant response rating ([10]; 32 g ai/ha) | Watergrass, Early plant response rating ([10]; 64 g ai/ha) | Watergrass, Early plant response rating ([10]; 125 g ai/ha) | Watergrass, Early plant response rating ([10]; 250 g ai/ha) | Plant response rating, Watergrass, Early ([10]; 16 g ai/ha) | Junglerice plant response rating ([11]; 32 g ai/ha) | Junglerice plant response rating ([11]; 64 g ai/ha) | Junglerice plant response rating ([11]; 125 g ai/ha) | Junglerice plant response rating ([11]; 250 g ai/ha) | Plant response rating, Junglerice ([11]; 16 g ai/ha) | Watergrass, Late plant response rating ([12]; 32 g ai/ha) | Watergrass, Late plant response rating ([12]; 64 g ai/ha) | Watergrass, Late plant response rating ([12]; 125 g ai/ha) | Watergrass, Late plant response rating ([12]; 250 g ai/ha) | Plant response rating, Watergrass, Late ([12]; 16 g ai/ha) | Redstem plant response rating ([13]; 32 g ai/ha) | Redstem plant response rating ([13]; 64 g ai/ha) | Redstem plant response rating ([13]; 125 g ai/ha) | Plant response rating, Redstem ([13]; 16 g ai/ha) | Sedge, Umbrella plant response rating ([15]; 32 g ai/ha) | Plant response rating, Sedge, Umbrella ([15]; 16 g ai/ha) | Rice, Transplanted plant response rating ([16]; 32 g ai/ha) | Rice, Transplanted plant response rating ([16]; 64 g ai/ha) | Rice, Transplanted plant response rating ([16]; 125 g ai/ha) | Rice, Transplanted plant response rating ([16]; 250 g ai/ha) | Plant response rating, Rice, Transplanted ([16]; 16 g ai/ha) | Rice, Water Seeded plant response rating ([17]; 32 g ai/ha) | Rice, Water Seeded plant response rating ([17]; 64 g ai/ha) | Rice, Water Seeded plant response rating ([17]; 125 g ai/ha) | Rice, Water Seeded plant response rating ([17]; 250 g ai/ha) | Plant response rating, Rice, Water Seeded ([17]; 16 g ai/ha)
5: Plant response rating, Barnyardgrass [1, 19]
100: Ducksalad plant response rating ([9]; 32 g ai/ha) | Ducksalad plant response rating ([9]; 64 g ai/ha) | Ducksalad plant response rating ([9]; 125 g ai/ha) | Ducksalad plant response rating ([9]; 250 g ai/ha) | Flatsedge, Rice plant response rating ([14]; 64 g ai/ha) | Flatsedge, Rice plant response rating ([14]; 125 g ai/ha) | Flatsedge, Rice plant response rating ([14]; 250 g ai/ha) | Sedge, Umbrella plant response rating ([15]; 250 g ai/ha)
65: Plant response rating, Pigweed [5, 20] | Plant response rating, Velvetleaf [6, 21] | Plant response rating, Flatsedge, Rice ([14]; 16 g ai/ha)
50: Plant response rating, Crabgrass [2, 20] | Plant response rating, Foxtail, Giant [3, 21]
40: Plant response rating, Crabgrass [2, 19]
30: Redstem plant response rating ([13]; 250 g ai/ha) | Sedge, Umbrella plant response rating ([15]; 64 g ai/ha)
35: Plant response rating, Velvetleaf [6, 20]
75: Plant response rating, Crabgrass [2, 21] | Plant response rating, Morningglory [4, 18]
55: Plant response rating, Foxtail, Giant [3, 19]
85: Plant response rating, Pigweed [5, 21] | Plant response rating, Velvetleaf [6, 18]
